Source: patent US8642764B1, “Julolidine conjugates and methods for their preparation and use” (Jawaharlal Nehru Centre for Advanced Scientific Research, priority 2012, dated 2014)

Columns and labels:
[1] = UV/Vis absorption spectra upon addition of metal ions; format: physicochemical; conditions: Cu^2+ 50.0 equiv; HEPES/CH3CN pH 7.2
Protocol: The photophysical properties of bi-julolidine compounds were investigated by monitoring the absorption spectral behavior upon addition of several metal ions such as Li^+, Na^+, Ba^2+, Sr^2+, Mg^2+, Al^3+, Ca^2+, Mn^2+, Fe^2+, Co^2+, Ni^2+, Zn^2+, Ag^+, Cd^2+, Hg^2+, Pb^2+ and Cu^2+ in an aqueous buffer medium (50 mM, 2-(4-(2-hydroxyethyl)-1-piperazin-yl)ethanesulfonic acid (HEPES)/CH3CN, 6:4, v/v; pH 7.2). […] With the addition of 50.0 equivalents of Co^2+, Ni^2+and Zn^2+, the absorbance intensity decreased and slightly red shifted to different extents (Ni^2+=408.5 nm; Zn^2+=410 nm; Co^2+=409 nm).
Representative examples are shown in FIG. 1 and FIG. 2 using compound 1 and 2, respectively.

[2] = UV/Vis absorption and colorimetric titration with increasing concentrations of Cu^2+; format: physicochemical; conditions: for extinction coefficient (ε) in the NIR region at maximum: at the Cu^2+ equivalents giving maximum NIR absorbance; for extinction coefficient (ε) at 570 nm at maximum: at the Cu^2+ equivalents giving maximum absorbance at 570 nm; for NIR λmax at maximum absorbance / final solution color: end of the Cu^2+ titration; for visual color change of solution: increasing concentration of Cu^2+ ions; for NIR band λmax / new absorption band in the visible region (λmax): on first appearance in the Cu^2+ titration (1.0 to 2.0 equivalents); for Cu^2+ added at which absorbance at 570 nm reached a maximum / Cu^2+ added at which absorbance in the NIR region reached a maximum: sequential titration, pH 7.2
Protocol: The spectral and colorimetric properties of bi-julolidine compounds were investigated by monitoring the absorption spectral behavior upon addition of increasing concentrations of Cu^2+ in an aqueous buffer medium (50 mM, 2-(4-(2-hydroxyethyl)-1-piperazin-yl)ethanesulfonic acid (HEPES)/CH3CN, 6:4, v/v; pH 7.2). During sequential titration, the absorption spectra of julolidine-carbonohydrazone compound in the visible region gradually shifted from 380 nm to 412 nm with the addition of 1.5 equivalents of Cu^2+ and the colorless solution turned to light green. Increasing the concentration of Cu^2+ in the solution of julolidine-carbonohydrazone compound from 1.5 to 2.0 equivalents led to a change in the solution color from light green to light purple. A new absorption band (λmax=570 nm) appeared in the visible region accompanied by a distinguishable NIR band with λmax centered at 930 nm. The absorbance at 570 nm reached a maximum upon addition of 6.0 equivalents of Cu^2+ with an extinction coefficient (ε) of 2×10^4 M^−1cm^−1 and then decreased with further addition of Cu^2+. The absorbance in the NIR region reached a maximum (ε=5.2×10^4 M^−1cm^−1) upon addition of a total of 8.0 equivalents of Cu^2+ with a gradual shift of λmax from 930 nm to 825 nm, and that remained unchanged upon further addition of Cu^2+. The final solution color of julolidine-carbonohydrazone compound was aqua colored.
During sequential titration of Cu^2+ with julolidine-thiocarbonohydrazone compound, two absorption bands appeared at 570 nm and 980 nm, after addition of 1.0 equivalent of Cu^2+. At that concentration of Cu^2+ ions, the color of the solution of julolidine-thiocarbonohydrazone compound changed from greenish to light purple. The absorbance at 570 nm and 980 nm were enhanced when Cu^2+ concentrations increased from 1.5 to 2.0 equivalents and the purple-colored solution turned to light violet. The absorbance at 570 nm reached a maximum at 5.0 equivalents of Cu^2+ with an extinction coefficient (ε) of 2×10^4 M^−1 cm^−1 and a consequent increase in the intensity of the NIR absorption band was observed. At that concentration of Cu^2+ ions, The solution color of julolidine-thiocarbonohydrazone compound changed from light violet to blue. […] The final solution color of julolidine-thiocarbonohydrazone compound was greenish aqua.

[3] = Specificity of Schiff-base compounds towards Cu^2+ ions (absorption spectra); format: physicochemical; conditions: for absorption band: absence of Cu^2+ ions; for characteristic absorbance in the NIR region / characteristic absorbance in the visible region: presence of Cu^2+ ions
Protocol: The specificity of bi-julolidine Schiff-base compounds, compound 1 and compound 2, in detecting Cu^2+ ions were investigated by monitoring the absorption spectral behavior of the compounds. The experiment was also performed using other Schiff-base compounds that were prepared by condensing different salicylaldehyde derivatives with carbohydrazide and thiocarbohydrazide (compounds 3-8, shown below).

[4] = Fluorometric detection of copper ions; format: physicochemical; conditions: for fluorescence emission: excitation at 430 nm, no metal ion
Protocol: The fluorometric behavior of julolidine-thiocarbonohydrazone compound was studied upon addition of 20.0 equivalents of Li^+, Na^+, Ba^2+, Sr^2+, Mg^2+, […], Ca^2+, Mn^2+, Fe^2+, CO^2+, Ni^2+, Zn^2+, Ag^+, Cd^2+, Hg^2+, Pb^2+ and Cu^2+ in an aqueous buffer medium (50 mM, 2-(4-(2-hydroxyethyl)-1-piperazin-yl)ethanesulfonic acid (HEPES)/CH3CN, 6:4, v/v; pH 7.2). […] The quenched fluorescence of julolidine-thiocarbonohydrazone compound was restored upon treating the julolidine-thiocarbonohydrazone compound —Cu^2+ complex with ethylenediaminetetraacetic acid (EDTA). Fluorescence emission of compound 2 with sequential addition of increasing concentrations (0 to 50 μM) of Cu^2+ is shown in FIG. 5B.

HEK 293T cells = assay: Detection of Cu^2+ ions in cells using fluorescence microscopy; format: cell-based
Protocol: HEK 293T cells were grown to 50% confluency in a 30 mm dish containing Dulbecco's modified eagle medium (DMEM) and 10% fetal bovine serum (FBS) at 37° C. and 5% CO2. The cells were washed three times with phosphate-buffered saline (PBS) and stained with julolidine-thiocarbonohydrazone compound (10 μM final concentration) in the growth media without FBS for 10 minutes. The adherent cells were washed three times with PBS to remove excess compound. […] Further, the excess of Cu—(ClO4)2.6H2O was washed off with PBS and then supplemented with EDTA (10 μM) in DMEM without FBS for 10 minutes.

absorption band [3]	Compound	characteristic absorbance in the NIR region [1]	characteristic absorbance in the visible region [1] [nm]	extinction coefficient (ε) in the NIR region at maximum [2] [M⁻¹ cm⁻¹]	extinction coefficient (ε) at 570 nm at maximum [2] [M⁻¹ cm⁻¹]	NIR λmax at maximum absorbance [2] [nm]	final solution color [2]	visual color change of solution [2]	NIR band λmax [2] [nm]	new absorption band in the visible region (λmax) [2] [nm]	Cu^2+ added at which absorbance at 570 nm reached a maximum [2] [equivalents]	Cu^2+ added at which absorbance in the NIR region reached a maximum [2] [equivalents]	characteristic absorbance in the NIR region [3] [nm]	characteristic absorbance in the visible region [3] [nm]	further results
around 380 nm	O=C(N/N=C/c1cc2c3c(c1O)CCCN3CCC2)N/N=C/c1cc2c3c(c1O)CCCN3CCC2 [compound 1, julolidine-carbonohydrazone]	823 nm	495	52000	20000	825	aqua colored	light green, then to light purple, and then to aqua color	930	570	6.0	8.0	825	495	absorption in the visible region, shifted from 380 nm ([2]; addition of 1.5 equivalents of Cu^2+): 412 nm
around 380 nm	Oc1c(/C=N/NC(=S)N/N=C/c2cc3c4c(c2O)CCCN4CCC3)cc2c3c1CCCN3CCC2 [compound 2, julolidine-thiocarbonohydrazone]	around 820 nm	570	52000	20000	820	greenish aqua	from light green to light violet, then to light blue and then to greenish aqua	980	570	5.0	15.0	825	570	fluorescence emission in the presence of other metal ions ([4]; 20.0 equivalents of Li+, Na+, Ba2+, Sr2+, Mg2+, Ca2+, Mn2+, Fe2+, Co2+, Ni2+, Zn2+, Ag+, Cd2+, Hg2+, Pb2+): no significant changes; fluorescence intensity around 535 nm in the presence of Cu^2+ ([4]; 430 nm excitation, 20.0 equivalents of Cu^2+): quenched; quenched fluorescence after treating the Cu^2+ complex with EDTA ([4]; EDTA): restored; fluorescence emission [4]: about 535 nm; fluorescence emission ([4]; listed as Julolidine-thiocarbonohydrazone compound): around 535 nm; fluorescence in cells after staining (HEK 293T cells; 10 μM, 10 minutes, HEK 293T): presence of fluorescent julolidine-thiocarbonohydrazone compound in cells; intracellular fluorescence after Cu^2+ supplementation (HEK 293T cells; Cu(ClO4)2.6H2O 10 μM, 10 minutes): complete suppression of intracellular fluorescence; intracellular fluorescence after EDTA (HEK 293T cells; EDTA 10 μM, 10 minutes, after Cu^2+ was washed off): recovery of intracellular fluorescence; cell permeability (HEK 293T cells; HEK 293T living cells): cell-permeable
